Assays:
Type in all cases: in vivo
[1] = tested on: acne; assay: Human who has acne treated with an Oxazolidinone ointment; conditions: person, ointment containing 30 mg/ml, topical, twice daily
Procedure: A Human Who has Acne is Treated with an Oxazolidinone Ointment

[2] = tested on: otitis media; assay: Human who has an ear infection treated with Oxazolidinone solution; conditions: child, ten drops of solution containing 10 mg/ml into the ear twice daily for ten days; before 10 days
Procedure: A Human Who has an Ear Infection is Treated with Oxazolidinone Solution
Ten drops of a solution containing 10 mg/ml of (S)-N-[[3-[3-fluoro-4-(4-morpholinyl)phenyl]-2-oxo-5-oxazolidinyl]methyl]acetamide is dropped into the ear twice daily for ten days with an eye dropper and is immediately followed by closing the outer ear canal with cotton.

[3] = tested on: wound infection; assay: Human with wound infection treated with Oxazolidinone gel; conditions: person, punctured finger, gel containing 1%, twice daily for 10 days
Procedure: Human with Wound Infection is Treated with Oxazolidinone Gel
A 65 kg person who has a severely swollen and painful finger with a history of having punctured the finger on a rose thorn two days previously is treated by administering a gel containing 1% N-((5S)-3-(3-fluoro-4-(4-(2-fluoroethyl)-3-oxopiperazin-1-yl)phenyl)-2-oxooxazolidin-5-ylmethyl)acetamide twice daily for 10 days. The site of inflammation is kept lightly covered with a sterile bandage following antibiotic therapy.

CC(=O)NC[C@H]1CN(c2ccc(N3CCN(C(=O)CO)CC3)c(F)c2)C(=O)O1 [Example 1, (S)-N-[[3-[3-Fluoro-4-[4-(hydroxyacetyl)-1-piperazinyl]-phenyl]-2-oxo-5-oxazolidinyl]methyl]acetamide]
reddened and swollen pustules after administration [1]: greatly reduced

CC(=O)NC[C@H]1CN(c2ccc(N3CCOCC3)c(F)c2)C(=O)O1 [Example 2, (S)-N-[[3-[3-Fluoro-4-(4-morpholinyl)phenyl]-2-oxo-5-oxazolidinyl]methyl]acetamide]
fever [2]: the fever is down | pain [2]: the pain is gone

CC(=O)NC[C@H]1CN(c2ccc(N3CCN(CCF)C(=O)C3)c(F)c2)C(=O)O1 [Example 4, N-((5S)-3-(3-Fluoro-4-(4-(2-fluoroethyl)-3-oxopiperazin-1-yl)phenyl)-2-oxooxazolidin-5-ylmethyl)acetamide]
wound healing [3]: The wound heals
